Laboratory results from patent US20130116251A1, “Novel HSP90 Inhibitor” (Nippon Kayaku Kabushiki Kaisha, priority 2005, published 2013).
Where a name gives a salt, the structure may show the parent alone. Read-outs that look alike come from different tables or passages of the source.

Columns and labels:
[1] = system: Human breast cancer cells (MCF7); assay: Antiproliferative activity on MCF7 cells (methylene blue method); type: cell-based; details: read-out: Antiproliferative activity IC50
Procedure: Human breast cancer cells (MCF7) were treated with samples of various concentrations of known HSP90 inhibitors (that is, geldanamycin, herbimycin, radicicol and PU3) and the compounds of the present invention for 72 hours to confirm the effect of the triazole derivatives of the present invention on the cell growth. The cell ratio after the drug treatment was evaluated by measuring 660 nm absorbance by a microplate reader (BioRad) after staining the cells with the methylene blue method.
Cells were distributed to wells of 96 well plates at 2000 cells per well and treated with drugs 24 hours later. Further, the medium was removed 72 hours later and the cells were fixed by adding 50 μl of methanol and standing at room temperature for 2 minutes. After removing methanol, 100 μl of a staining solution was added and stained for 30 minutes. After washing 3 times with 200 μl of distilled water, 3% HCl solution was added, and the 660 nm absorbance of methylene blue was measured by a microplate reader (BioRad).
Next, the antiproliferative activity rate (%) was obtained by the formula (2) below.
Antiproliferative activity rate(%)=((B−A)/B)×100 Formula (2)
wherein B is 660 nm absorbance of the sample when the compound of the present invention is not added, and A is 660 nm absorbance of the sample when the compound of the present invention is added.
From the concentration of the triazole derivative of the present invention and the antiproliferative activity rate, the concentration was obtained using the above formula, at which the cell growth was suppressed by 50% by comparing with the control, and termed an IC50 value.
The antiproliferative activity rate (%) was obtained for SH-b04, SH-b05 and SH-b06 described above by a similar manner to that of the triazole derivatives of the present invention.

rHSP90 = assay: HSP90 binding assay (BIACORE SPR; inhibition of binding between rHSP90 and fixed herbimycin A); details: concentration inhibiting binding between rHSP90 (50 μg/mL) and fixed herbimycin A by 50%, BIACORE-X SPR; read-out: HSP90 inhibitory activity IC50
Text: The HSP90 binding assay system is a system for detecting the change of mass as SPR signal caused by the binding between herbimycin A fixed on a sensor chip and rHSP90 by BIACORE-X, in which 17-(6-amino hexylamino)herbimycin A is fixed through a carboxyl group on the surface of the sensor chip (CM5, BIACORE) on which carboxymethyldextran has been introduced. The method was according to the protocol of BIACORE. In addition, 17-(6-aminohexylamino)herbimycin A was synthesizes as described below.
rHSP90 (Stressgen Biotechnologies Corp., Victoria, BC Canada) at 50 μg/mL was exposed for 10 seconds to the surface of the sensor chip on which herbimycin A was fixed and the SPR signal (numerical value of interaction) was detected.
After mixing rHSP90 protein (5×10^−7M (50 μg/mL)) with the triazole derivative of the present invention, the mixture was exposed for 10 seconds to the surface of the sensor chip on which herbimycin A was fixed, and the SPR signal was measured by BIACORE-X.
Next, using following formula (1), the inhibitory activity (binding inhibition rate (%)) of the compound of the present invention to the binding between rHSP90 and fixed herbimycin A was obtained.
binding inhibition rate(%)=((b−s)/b)×100 Formula (1)
wherein b is the SPR signal when the compound of the present invention is not added to the sample: s is the SPR signal when the compound of the present invention is added to the sample.

[2] = MCF7 cells, 72 hours treatment, 660 nm absorbance after methylene blue staining
[3] = Homo sapiens, MCF7, 72 h, MCF7 cells, 72 hours treatment, 660 nm absorbance after methylene blue staining

4-bromo-6-{5-methylsulfanyl-4-[4-(morpholin-4-yl)-phenyl]-4H-[1,2,4]triazol-3-yl}-benzene-1,3-diol trifluoroacetate [SMe-d01-TF]
IC50 [1, 2]: 5500 nM | IC50 (rHSP90): 600 nM

COc1cccc(-n2c(-c3cc(C(C)C)c(O)cc3O)n[nH]c2=O)c1 [OH-a09, 5-(2,4-dihydroxy-5-isopropyl-phenyl)-4-(3-methoxy-phenyl)-2,4-dihydro-[1,2,4]triazol-3-one]
IC50 [1, 3]: 6.7 nM | IC50 (rHSP90): 160 nM

COc1ccc(-n2c(-c3cc(C(C)C)c(O)cc3O)n[nH]c2=O)cc1OC [OH-a10, 5-(2,4-dihydroxy-5-isopropyl-phenyl)-4-(3,4-dimethoxy-phenyl)-2,4-dihydro-[1,2,4]triazol-3-one]
IC50 [1, 3]: 14 nM

CC(C)c1cc(-c2n[nH]c(=O)n2-c2ccc(C(=O)O)cc2)c(O)cc1O [OH-a12, 4-[3-(2,4-dihydroxy-5-isopropylphenyl)-5-oxo-1,5-dihydro-[1,2,4]triazol-4-yl]-benzoic acid]
IC50 [1, 3]: > 20000 nM | IC50 (rHSP90): 190 nM

CC(C)c1cc(-c2n[nH]c(=O)n2-c2ccc(C(=O)N3CCOCC3)cc2)c(O)cc1O [OH-a14]
IC50 [1, 3]: 720 nM | IC50 (rHSP90): 190 nM

CC(C)c1cc(-c2n[nH]c(=O)n2-c2cnc(N3CCOCC3)nc2)c(O)cc1O [OH-a17, 5-(2,4-dihydroxy-5-isopropyl-phenyl)-4-[2-(molpholin-4-yl)-pyrimidin-5-yl]-2,4-dihydro-[1,2,4]triazol-3-one]
IC50 [1, 3]: 26 nM | IC50 (rHSP90): 220 nM

CC(C)c1cc(-c2n[nH]c(=O)n2N2CCCCC2)c(O)cc1O [OH-a24•TFA, 5-(2,4-dihydroxy-5-isopropyl-phenyl)-4-piperidin-1-yl-2,4-dihydro-[1,2,4]triazol-3-one]
IC50 [1, 3]: 790 nM | IC50 (rHSP90): 1100 nM

CC(C)c1cc(-c2n[nH]c(=O)n2CCN2CCOCC2)c(O)cc1O [OH-a26•HCl, 5-(2,4-dihydroxy-5-isopropyl-phenyl)-4-(2-morpholin-4-yl-ethyl)-2,4-dihydro-[1,2,4]triazol-3-one]
IC50 [1, 3]: 600 nM | IC50 (rHSP90): 180 nM

CC(C)c1cc(-c2n[nH]c(=O)n2CCCN2CCOCC2)c(O)cc1O [OH-a27, 5-(2,4-dihydroxy-5-isopropyl-phenyl)-4-[3-(molpholin-4-yl)-propyl]-2,4-dihydro-[1,2,4]triazol-3-one]
IC50 [1, 3]: 220 nM | IC50 (rHSP90): 240 nM

CC(C)c1cc(-c2n[nH]c(=O)n2CCCN2CCCC2=O)c(O)cc1O [OH-a30, 5-(2,4-dihydroxy-5-isopropyl-phenyl)-4-[3-(2-oxo-pyrrolidin-1-yl)propyl]-2,4-dihydro-[1,2,4]triazol-3-one]
IC50 [1, 3]: 1100 nM | IC50 (rHSP90): 140 nM

COCCn1c(-c2cc(C(C)C)c(O)cc2O)n[nH]c1=O [OH-a32, 5-(2,4-dihydroxy-5-isopropyl-phenyl)-4-(2-methoxy-ethyl)-2,4-dihydro-[1,2,4]triazol-3-one]
IC50 [1, 3]: 390 nM | IC50 (rHSP90): 350 nM

CC(C)c1cc(-c2n[nH]c(=O)n2C(CO)CO)c(O)cc1O [OH-a33, 5-(2,4-dihydroxy-5-isopropyl-phenyl)-4-(2-hydroxy-1-hydroxymethyl-ethyl)-2,4-dihydro-[1,2,4]triazol-3-one]
IC50 [1, 3]: 3300 nM | IC50 (rHSP90): 370 nM

CC#CCc1cc(-c2n[nH]c(=O)n2-c2ccc(CN3CCOCC3)cc2)c(O)cc1O [OH-c02, 5-[5-(but-2-ynyl)-2,4-dihydroxy-phenyl]-4-[4-(morpholin-4-ylmethyl)-phenyl]-2,4-dihydro-[1,2,4]triazol-3-one]
IC50 [1, 3]: 140 nM | IC50 (rHSP90): 220 nM

C#CCc1cc(-c2n[nH]c(=O)n2-c2ccc(CN3CCOCC3)cc2)c(O)cc1O [OH-e02, 5-[2,4-dihydroxy-5-(prop-2-ynyl)-phenyl]-4-[4-(morpholin-4-ylmethyl)-phenyl]-2,4-dihydro-[1,2,4]triazol-3-one]
IC50 [1, 3]: 240 nM | IC50 (rHSP90): 150 nM

CCCCn1c(Cc2cc(OC)c(OC)c(OC)c2)nc2c(N)ncnc21 [PU3, reference compound]
IC50 [1, 2]: 91000 nM

CC(C)c1cc(-c2nnc(S(=O)(=O)CCCN(C)C)n2-c2ccc(O)cc2)c(O)cc1O [SFN2-a11•TFA, 4-[5-(3-dimethylamino-propylsulfonyl)-4-(4-hydroxy-phenyl)-4H-[1,2,4]triazol-3-yl]-6-isopropyl-benzene-1,3-diol]
IC50 [1, 3]: 98 nM | IC50 (rHSP90): 430 nM

CC(C)c1cc(-c2nnc(S(=O)(=O)CCCN(C)C)n2C(C)C)c(O)cc1O [SFN2-a21•TFA]
IC50 [1, 3]: 5200 nM | IC50 (rHSP90): 1000 nM

CC(C)c1cc(-c2nnc(S(=O)(=O)CCCN3CCCCC3)n2C(C)C)c(O)cc1O [SFN3-a21•TFA, 4-isopropyl-6-[4-isopropyl-5-(3-piperidine-1-yl-propane-1-sulfonyl)-4H-[1,2,4]triazol-3-yl]-benzene-1,3-diol]
IC50 [1, 3]: 4100 nM | IC50 (rHSP90): 1400 nM

COc1ccc(-n2c(-c3cc(C(C)C)c(O)cc3O)nnc2S(=O)(=O)Cc2cccnc2)cc1 [SFN4-a08, 4-isopropyl-6-[4-(4-methoxy-phenyl)-5-(pyridin-3-ylmethanesulfonyl)-4H-[1,2,4]triazol-3-yl]-benzene-1,3-diol]
IC50 [1, 3]: 9900 nM | IC50 (rHSP90): 230 nM

COc1ccc(-n2c(-c3cc(C(C)C)c(O)cc3O)nnc2S(=O)(=O)Cc2ccc[n+]([O-])c2)cc1 [SFN5-a08, 4-isopropyl-6-[4-(4-methoxy-phenyl)-5-(1-oxy-pyridin-3-ylmethanesulfonyl)-4H-[1,2,4]triazol-3-yl]-benzene-1,3-diol]
IC50 [1, 3]: 3900 nM | IC50 (rHSP90): 430 nM

COc1ccc(-n2c(-c3cc(C(C)C)c(O)cc3O)nnc2S(=O)(=O)CC(=O)N(C)C)cc1 [SFN6-a08, 2-[5-(2,4-dihydroxy-5-isopropyl-phenyl)-4-(4-methoxy-phenyl)-4H-[1,2,4]triazol-3-sulfonyl]-N,N-dimethyl-acetamide]
IC50 [1, 3]: 550 nM | IC50 (rHSP90): 580 nM

COc1ccc(-n2c(-c3cc(C(C)C)c(O)cc3O)nnc2S(=O)(=O)CC2CCCCO2)cc1 (centres unmarked) [SFN7-a08, 4-isopropyl-6-[4-(4-methoxy-phenyl)-5-(tetrahydro-pyran-2-ylmethanesulfonyl)-4H-[1,2,4]triazol-3-yl]-benzene-1,3-diol]
IC50 [1, 3]: 720 nM | IC50 (rHSP90): 720 nM

COCCOCCS(=O)(=O)c1nnc(-c2cc(C(C)C)c(O)cc2O)n1-c1ccc(OC)cc1 [SFN8-a08, 4-isopropyl-6-{5-[2-(2-methoxy-ethoxy)-ethanesulfonyl]-4-(4-methoxy-phenyl)-4H-[1,2,4]triazol-3-yl}-benzene-1,3-diol]
IC50 [1, 3]: 2400 nM | IC50 (rHSP90): 600 nM

CC(C)c1cc(-c2nnc(S(C)(=O)=O)n2CCN2CCOCC2)c(O)cc1O [SFN-a26, 4-isopropyl-6-[5-methanesulfonyl-4-(2-molpholin-4-ylethyl)-4H-[1,2,4]triazol-3-yl]-benzene-1,3-diol]
IC50 [1, 3]: > 20000 nM

Oc1cc(O)c(-c2n[nH]c(=S)n2-c2ccc(N3CCOCC3)cc2)cc1Br [SH-d01, 4-bromo-6-{5-mercapto-4-[4-(morpholin-4-yl)-phenyl]-4H-[1,2,4]triazol-3-yl}-benzene-1,3-diol]
IC50 [1, 3]: 580 nM

COc1ccc(-n2c(SC)nnc2-c2cc(C(C)C)c(O)cc2O)cc1 [SMe-a08, 4-isopropyl-6-[4-(4-methoxy-phenyl)-5-methylsulfanyl-4H-[1,2,4]triazol-3-yl]-benzene-1,3-diol]
IC50 [1, 3]: 3100 nM

COC1=C2C[C@@H](C)C[C@H](OC)[C@H](O)[C@@H](C)/C=C(\C)[C@H](OC(N)=O)[C@@H](OC)/C=C\C=C(/C)C(=O)NC(=CC1=O)C2=O [geldanamycin, reference compound]
IC50 [1, 3]: 12 nM

CO[C@H]1[C@@H](OC)C[C@H](C)[C@@H](OC)C2=CC(=O)C=C(NC(=O)/C(C)=C/C=C\[C@H](OC)[C@@H](OC(N)=O)/C(C)=C/[C@@H]1C)C2=O [herbimycin, reference compound]
IC50 ([1]; Homo sapiens, MCF7, 72 h): 160 nM

C[C@@H]1C[C@H]2O[C@@H]2/C=C\C=C\C(=O)Cc2c(Cl)c(O)cc(O)c2C(=O)O1 [radicicol, reference compound]
IC50 [1, 3]: 19 nM
